Results taken from patent US10294202B2, “Pyrrolidinones as herbicides” (FMC Corporation, priority 2013, dated 2019).

Columns and labels:
[1] = test system: wheat; assay: Test A pre-/postemergence herbicide test; type: in vivo, Triticum aestivum; conditions: Postemergence
Outline: (§1)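 Scoring was visual, relative to untreated controls, on a 0–100 scale after about 10 greenhouse days. Preemergence treatment used a directed soil spray over seeded loam/sand; postemergence treatment targeted one- to two-leaf plants of 2–10 cm.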

[2] = test system: giant foxtail; assay: Test A pre-/postemergence herbicide test; type: in vivo, Setaria faberii; conditions: for Plant response rating, Foxtail, Giant: 0 to 100 scale
Outline: as §1

[3] = test system: nutsedge, yellow; assay: Test C pre-/postemergence herbicide test; type: in vivo, Cyperus esculentus
Outline: (§2)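 Response scores range from 0, meaning no effect, to 100, meaning complete control, assigned visually by comparison with controls roughly two weeks (13 to 15 days) after spraying. Applications were made preemergence to seeded loam–sand soil and postemergence to 1- to 4-leaf plants.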

[4] = test system: ragweed; assay: Test C pre-/postemergence herbicide test; type: in vivo, Ambrosia elatior
Outline: as §2

[5] = test system: pigweed; assay: Test A pre-/postemergence herbicide test; type: in vivo, Amaranthus retroflexus; conditions: for Plant response rating, Pigweed: 0 to 100 scale
Outline: as §1

[6] = test system: soybean; assay: Test C pre-/postemergence herbicide test; type: in vivo, Glycine max
Outline: as §2

[7] = test system: wheat (winter wheat); assay: Test C pre-/postemergence herbicide test; type: in vivo, Triticum aestivum
Outline: as §2

[8] = test system: waterhemp; assay: Test C pre-/postemergence herbicide test; type: in vivo, Amaranthus rudis
Outline: as §2

[9] = test system: oilseed rape; assay: Test C pre-/postemergence herbicide test; type: in vivo, Brassica napus
Outline: as §2

[10] = test system: oat, wild; assay: Test C pre-/postemergence herbicide test; type: in vivo, Avena fatua; conditions: Postemergence
Text: Seeds of plant species selected from blackgrass (Alopecurus myosuroides), ryegrass, Italian (Italian ryegrass, Lolium multiflorum), wheat (winter wheat, Triticum aestivum), galium (catchweed bedstraw, Galium aparine), corn (Zea mays), crabgrass, large (large crabgrass, Digitaria sanguinalis), foxtail, giant (giant foxtail, Setaria faberii), johnsongrass (Sorghum halepense), lambsquarters (Chenopodium album), morningglory (Ipomoea coccinea), nutsedge, yellow (yellow nutsedge, Cyperus esculentus), pigweed (Amaranthus retroflexus), ragweed (common ragweed, Ambrosia elatior), soybean (Glycine max), barnyardgrass (Echinochloa crus-galli), oilseed rape (Brassica napus), waterhemp (common waterhemp, Amaranthus rudis), kochia (Kochia scoparia), oat, wild (wild oat, Avena fatua), surinam grass (Brachiaria decumbens), foxtail, green (green foxtail, Setaria viridis), goosegrass (Eleusine indica), bromegrass, downy (downy bromegrass, Bromus tectorum), nightshade (eastern black nightshade, Solanum ptycanthum), cocklebur (common cocklebur, Xanthium strumarium), cupgrass, woolly (woolly cupgrass, Eriochloa villosa), bermudagrass (Cynodon dactylon), sunflower, (common oilseed sunflower, Helianthus annuus), Russian thistle (Salsola kali) and velvetleaf (Abutilon theophrasti) were planted into a blend of loam soil and sand and treated preemergence with test chemicals formulated in a non-phytotoxic solvent mixture which included a surfactant. At the same time, plants selected from these crop and weed species and also barley (winter barley, Hordeum vulgare), […]), chickweed (common chickweed, Stellaria media), deadnettle (henbit deadnettle, Lamium amplexicaule), and canarygrass (littleseed canarygrass, Phalaris minor) were planted in pots containing Redi-Earth® planting medium (Scotts Company, 14111 Scottslawn Road, Marysville, Ohio 43041) comprising spaghnum peat moss, vermiculite, wetting agent and starter nutrients and treated with postemergence applications of test chemicals formulated in the same manner. Plants ranged in height from 2 to 18 cm (1- to 4-leaf stage) for postemergence treatments. Treated plants and controls were maintained in a greenhouse for 13 to 15 days, after which time all species were compared to controls and visually evaluated. Plant response ratings, summarized in Table C, are based on a scale of 0 to 100 where 0 is no effect and 100 is complete control. A dash (-) response means no test result.

[11] = 125 g ai/ha, visual rating, 0 no effect, 100 complete control, approximately 10 days, preemergence
[12] = Postemergence, 125 g ai/ha, 0 is no effect, 100 is complete control
[13] = preemergence, 500 g ai/ha, 0 is no effect and 100 is complete control
[14] = Postemergence, 31 g ai/ha, scale 0 to 100 (0 no effect, 100 complete control)
[15] = Postemergence, 62 g ai/ha, scale 0 (no effect) to 100 (complete control)
[16] = Postemergence, 125 g ai/ha, scale 0 to 100 (0 no effect, 100 complete control)
[17] = Postemergence, 250 g ai/ha, scale 0 to 100 (0 no effect, 100 complete control)
[18] = Preemergence, 31 g ai/ha, scale 0 to 100, 0 is no effect and 100 is complete control
[19] = Preemergence, 62 g ai/ha, scale 0 to 100 (0 no effect, 100 complete control)
[20] = Preemergence, 125 g ai/ha, scale 0 to 100 (0 no effect, 100 complete control)

O=C1NC[C@H](c2cccc(C(F)(F)F)c2)[C@H]1C(=O)Nc1cccc(F)c1F [Compound 206]
50: Plant response rating, Pigweed [5, 12] | Plant response rating, Oilseed Rape [9, 16] | Plant response rating, Oat, Wild ([10]; 250 g ai/ha, scale 0 to 100 (0 no effect, 100 complete control))
10: Ragweed plant response rating [4, 19]
80: Wheat plant response rating (0 to 100 scale, 0 is no effect, 100 is complete control) ([1]; 500 g ai/ha) | Ragweed plant response rating [4, 18] | Plant response rating, Pigweed [5, 13]
0: Plant response rating, Nutsedge, Yellow [3, 14] | Plant response rating, Nutsedge, Yellow [3, 16] | Plant response rating, Nutsedge, Yellow [3, 17] | Nutsedge, Yellow plant response rating [3, 18] | Nutsedge, Yellow plant response rating [3, 19] | Plant response rating, Nutsedge, Yellow [3, 20] | Plant response rating (scale of 0 to 100), Nutsedge, Yellow ([3]; Preemergence, 250 g ai/ha) | Plant response rating, Ragweed [4, 15] | Soybean plant response rating [6, 18] | Soybean plant response rating [6, 19] | Plant response rating, Soybean [6, 20] | Plant response rating (scale of 0 to 100), Soybean ([6]; Preemergence, 250 g ai/ha) | Plant response rating, Wheat [7, 14] | Plant response rating, Wheat [7, 15] | Plant response rating, Waterhemp [8, 14] | Plant response rating, Waterhemp [8, 15] | Plant response rating, Oilseed Rape [9, 14] | Plant response rating, Oat, Wild ([10]; 31 g ai/ha, scale 0 to 100 (0 no effect, 100 complete control))
5: Plant response rating, Ragweed [4, 14] | Plant response rating, Ragweed [4, 17] | Plant response rating, Soybean [6, 14] | Plant response rating, Soybean [6, 15] | Plant response rating, Soybean [6, 16] | Plant response rating, Soybean [6, 17] | Oilseed Rape plant response rating [9, 18] | Plant response rating, Oat, Wild ([10]; 62 g ai/ha, scale 0 (no effect) to 100 (complete control))
90: Plant response rating, Foxtail, Giant [2, 11] | Plant response rating, Foxtail, Giant [2, 12] | Foxtail, Giant plant response rating (0 to 100 scale, 0 is no effect, 100 is complete control) ([2]; Postemergence, 500 g ai/ha) | Plant response rating, Foxtail, Giant [2, 13] | Plant response rating (scale of 0 to 100), Oilseed Rape ([9]; Preemergence, 250 g ai/ha)
55: Plant response rating, Oilseed Rape [9, 17]
75: Plant response rating, Oilseed Rape [9, 20]
20: Plant response rating, Nutsedge, Yellow [3, 15]
100: Waterhemp plant response rating [8, 19] | Plant response rating, Waterhemp [8, 20] | Plant response rating (scale of 0 to 100), Waterhemp ([8]; Preemergence, 250 g ai/ha)
25: Plant response rating, Ragweed [4, 16]
40: Wheat plant response rating [7, 19]
70: Plant response rating, Wheat ([1]; 125 g ai/ha, 0 to 100 scale, 0 is no effect, 100 is complete control) | Plant response rating, Ragweed [4, 20] | Pigweed plant response rating (0 to 100 scale, 0 is no effect, 100 is complete control) ([5]; Postemergence, 500 g ai/ha) | Plant response rating, Wheat [7, 20] | Plant response rating (scale of 0 to 100), Wheat ([7]; Preemergence, 250 g ai/ha) | Waterhemp plant response rating [8, 18] | Oilseed Rape plant response rating [9, 19]
35: Wheat plant response rating [7, 18] | Plant response rating, Waterhemp [8, 16]
45: Plant response rating, Wheat [7, 17] | Plant response rating, Oat, Wild ([10]; 125 g ai/ha, scale 0 to 100 (0 no effect, 100 complete control))
30: Plant response rating, Pigweed [5, 11] | Plant response rating, Wheat [7, 16] | Plant response rating, Waterhemp [8, 17] | Plant response rating, Oilseed Rape [9, 15]
98: Plant response rating (scale of 0 to 100), Ragweed ([4]; Preemergence, 250 g ai/ha)
